Data: paper PMC4048165, “Reaction Kinetics for the Biocatalytic Conversion of Phenazine-1-Carboxylic Acid to 2-Hydroxyphenazine” (PLoS ONE, 2014)

Target: T1, PhzO (Pseudomonas chlororaphis, UniProt E3UVD3)
T1 construct: full-length phzO (1476-bp PCR fragment, about 491 residues) in pET28a, 6-His tag, E. coli BL21, Ni-NTA purified
T1 sequence (E3UVD3 1-491): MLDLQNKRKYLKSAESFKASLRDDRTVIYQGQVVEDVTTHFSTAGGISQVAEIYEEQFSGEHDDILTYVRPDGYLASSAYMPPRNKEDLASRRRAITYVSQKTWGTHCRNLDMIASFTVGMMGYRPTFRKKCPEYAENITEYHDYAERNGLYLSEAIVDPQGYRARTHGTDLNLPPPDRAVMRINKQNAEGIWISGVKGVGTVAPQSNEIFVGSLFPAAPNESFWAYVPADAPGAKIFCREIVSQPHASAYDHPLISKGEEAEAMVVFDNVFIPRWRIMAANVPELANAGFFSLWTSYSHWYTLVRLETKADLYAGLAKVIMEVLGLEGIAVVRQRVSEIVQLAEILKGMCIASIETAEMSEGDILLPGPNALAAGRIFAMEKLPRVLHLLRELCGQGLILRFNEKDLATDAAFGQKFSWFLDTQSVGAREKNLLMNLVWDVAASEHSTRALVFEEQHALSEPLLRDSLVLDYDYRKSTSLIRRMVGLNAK
Experiment: HPLC detection of 2-OH-PCA and 2-OH-PHZ
Assay type: biochemical
Conditions: NADP(H), 1 mM Fe3+, PCA 200 mg/L, 0.1 M Tris-HCl; results call the enzyme purified, methods describe crude E. coli extract

Compound: O=C(O)c1cccc2nc3ccccc3nc12 [PCA, phenazine-1-carboxylic acid]
- HPLC detection of 2-OH-PCA and 2-OH-PHZ: PhzO was sufficient to hydroxylate PCA to produce 2-OH-PHZ in the presence of NADP(H)
